# Experimental data from PubChem BioAssay AID1745844 (Carcinogenic Potency Database (CPDB), 2022).
# Activity calls are given as the source filed them. The rule behind the calls is not given here.
# Test system: rodent lifetime carcinogenesis bioassay, tumor incidence TD50
# Assay: carcinogenic potency in animals, long-term in vivo studies, CPDB compilation (AID 1745844)
# Details: for carcinogen call: lesion: one or several types, types not named
smiles,measurement,setting,value
CC(=O)O[C@]1(C(C)=O)CC[C@H]2[C@@H]3C=C(Cl)C4=CC(=O)[C@@H]5C[C@@H]5[C@]4(C)[C@H]3CC[C@@]21C,TD50,"mouse, strain C57BL/10J, females, in feed, site: liver, lesion: hepatocellular adenoma, dosed 97 weeks, study length 97 weeks",1120 mg/kg/day
same,TD50,"mouse, strain C57BL/10J, females, in feed, site: liver, lesion: hepatocellular carcinoma, dosed 97 weeks, study length 97 weeks",254 mg/kg/day
same,TD50,"mouse, strain C57BL/10J, females, in feed, site: liver, lesion: several types, types named in the paper, dosed 97 weeks, study length 97 weeks",254 mg/kg/day
same,TD50,"mouse, strain C57BL/10J, females, in feed, site: pylorus, lesion: adenomatous polyp, dosed 97 weeks, study length 97 weeks",16.8 mg/kg/day
same,TD50,"mouse, strain C57BL/10J, males, in feed, site: liver, lesion: hepatocellular adenoma, dosed 104 weeks, study length 104 weeks",333 mg/kg/day
same,TD50,"mouse, strain C57BL/10J, males, in feed, site: liver, lesion: hepatocellular carcinoma, dosed 104 weeks, study length 104 weeks",179 mg/kg/day
same,TD50,"mouse, strain C57BL/10J, males, in feed, site: liver, lesion: several types, types named in the paper, dosed 104 weeks, study length 104 weeks",115 mg/kg/day
same,TD50,"mouse, strain C57BL/10J, males, in feed, site: pylorus, lesion: adenomatous polyp, dosed 104 weeks, study length 104 weeks",31.6 mg/kg/day
CC(=O)Oc1ccccc1C(=O)O,carcinogen call,"mouse, strain C57BL/6, females, in feed, site: liver, dosed 77 weeks, study length 77 weeks",negative (inactive)
same,carcinogen call,"mouse, strain C57BL/6, males, in feed, site: liver, dosed 77 weeks, study length 77 weeks",negative (inactive)
same,carcinogen call,"rat, strain Fischer 344, males, in feed, site: colon, dosed 56 weeks, study length 56 weeks",negative (inactive)
same,TD50,"rat, strain Fischer 344, males, in feed, site: urinary bladder, lesion: papilloma, dosed 68 weeks, study length 68 weeks",1670 mg/kg/day
same,carcinogen call,"rat, strain Wistar, males, in feed, site: liver, dosed 52 weeks, study length 52 weeks",negative (inactive)
same,carcinogen call,"rat, strain albino, both sexes, by gavage, site: forestomach, dosed 78 weeks, study length 78 weeks",negative (inactive)
same,carcinogen call,"rat, strain albino, both sexes, by gavage, site: stomach, glandular, dosed 78 weeks, study length 78 weeks",negative (inactive)
c1ccc2occc2c1,TD50,"mouse, strain B6C3F1, females, by gavage, site: any site (literature study), lesion: several types, types named in the paper, dosed 103 weeks, study length 104 weeks",45.9 mg/kg/day
same,TD50,"mouse, strain B6C3F1, females, by gavage, site: forestomach + liver + lung, lesion: squamous-cell carcinoma + squamous-cell papilloma + hepatocellular adenoma + alveolar/bronchiolar adenoma + alveolar/bronchiolar, dosed 103 weeks, study length 104 weeks",33.4 mg/kg/day
same,TD50,"mouse, strain B6C3F1, females, by gavage, site: forestomach, lesion: squamous-cell carcinoma + squamous-cell papilloma, dosed 103 weeks, study length 104 weeks",145 mg/kg/day
same,TD50,"mouse, strain B6C3F1, females, by gavage, site: forestomach, lesion: squamous-cell papilloma, dosed 103 weeks, study length 104 weeks",172 mg/kg/day
same,TD50,"mouse, strain B6C3F1, females, by gavage, site: liver, lesion: hepatocellular adenoma + hepatocellular carcinoma + neoplastic nodule, dosed 103 weeks, study length 104 weeks",36.4 mg/kg/day
same,TD50,"mouse, strain B6C3F1, females, by gavage, site: liver, lesion: hepatocellular adenoma + hepatocellular carcinoma, dosed 103 weeks, study length 104 weeks",36.4 mg/kg/day
same,TD50,"mouse, strain B6C3F1, females, by gavage, site: liver, lesion: hepatocellular adenoma, dosed 103 weeks, study length 104 weeks",34.4 mg/kg/day
same,TD50,"mouse, strain B6C3F1, females, by gavage, site: lung, lesion: alveolar/bronchiolar adenoma + alveolar/bronchiolar carcinoma, dosed 103 weeks, study length 104 weeks",174 mg/kg/day
same,TD50,"mouse, strain B6C3F1, females, by gavage, site: lung, lesion: alveolar/bronchiolar adenoma, dosed 103 weeks, study length 104 weeks",224 mg/kg/day
same,TD50,"mouse, strain B6C3F1, females, by gavage, site: multiple organs + spleen, lesion: malignant lymphoma, undifferentiated type, dosed 103 weeks, study length 104 weeks",322 mg/kg/day
same,TD50,"mouse, strain B6C3F1, males, by gavage, site: any site (literature study), lesion: several types, types named in the paper, dosed 103 weeks, study length 104 weeks",54.3 mg/kg/day
same,TD50,"mouse, strain B6C3F1, males, by gavage, site: forestomach + liver + lung, lesion: squamous-cell carcinoma + squamous-cell papilloma + hepatocellular adenoma + hepatoblastoma + hepatocellular carcinoma + alveolar/, dosed 103 weeks, study length 104 weeks",23.9 mg/kg/day
same,TD50,"mouse, strain B6C3F1, males, by gavage, site: forestomach, lesion: squamous-cell carcinoma + squamous-cell papilloma, dosed 103 weeks, study length 104 weeks",108 mg/kg/day
same,TD50,"mouse, strain B6C3F1, males, by gavage, site: forestomach, lesion: squamous-cell carcinoma, dosed 103 weeks, study length 104 weeks",383 mg/kg/day
same,TD50,"mouse, strain B6C3F1, males, by gavage, site: forestomach, lesion: squamous-cell papilloma, dosed 103 weeks, study length 104 weeks",154 mg/kg/day
same,TD50,"mouse, strain B6C3F1, males, by gavage, site: liver, lesion: hepatoblastoma + hepatocellular carcinoma, dosed 103 weeks, study length 104 weeks",114 mg/kg/day
same,TD50,"mouse, strain B6C3F1, males, by gavage, site: liver, lesion: hepatoblastoma, dosed 103 weeks, study length 104 weeks",102 mg/kg/day
same,TD50,"mouse, strain B6C3F1, males, by gavage, site: liver, lesion: hepatocellular adenoma + hepatoblastoma + hepatocellular carcinoma, dosed 103 weeks, study length 104 weeks",19.8 mg/kg/day
same,TD50,"mouse, strain B6C3F1, males, by gavage, site: liver, lesion: hepatocellular adenoma + hepatocellular carcinoma + neoplastic nodule, dosed 103 weeks, study length 104 weeks",21.3 mg/kg/day
same,TD50,"mouse, strain B6C3F1, males, by gavage, site: liver, lesion: hepatocellular adenoma + hepatocellular carcinoma, dosed 103 weeks, study length 104 weeks",21.3 mg/kg/day
same,TD50,"mouse, strain B6C3F1, males, by gavage, site: liver, lesion: hepatocellular adenoma, dosed 103 weeks, study length 104 weeks",20.5 mg/kg/day
same,TD50,"mouse, strain B6C3F1, males, by gavage, site: lung, lesion: alveolar/bronchiolar adenoma + alveolar/bronchiolar carcinoma, dosed 103 weeks, study length 104 weeks",160 mg/kg/day
same,TD50,"mouse, strain B6C3F1, males, by gavage, site: lung, lesion: alveolar/bronchiolar adenoma, dosed 103 weeks, study length 104 weeks",136 mg/kg/day
same,TD50,"mouse, strain B6C3F1, males, by gavage, site: multiple organs, lesion: malignant lymphoma, lymphocytic type, dosed 103 weeks, study length 104 weeks",919 mg/kg/day
same,TD50,"rat, strain Fischer 344, females, by gavage, site: any site (literature study), lesion: several types, types named in the paper, dosed 103 weeks, study length 104 weeks",577 mg/kg/day
same,TD50,"rat, strain Fischer 344, females, by gavage, site: kidney, lesion: tubular-cell adenocarcinoma, dosed 103 weeks, study length 104 weeks",424 mg/kg/day
same,TD50,"rat, strain Fischer 344, females, by gavage, site: liver, lesion: hepatocellular adenoma + hepatocellular carcinoma + neoplastic nodule, dosed 103 weeks, study length 104 weeks",2090 mg/kg/day
same,TD50,"rat, strain Fischer 344, females, by gavage, site: lung, lesion: alveolar/bronchiolar adenoma + alveolar/bronchiolar carcinoma, dosed 103 weeks, study length 104 weeks",418 mg/kg/day
same,TD50,"rat, strain Fischer 344, females, by gavage, site: lung, lesion: alveolar/bronchiolar adenoma, dosed 103 weeks, study length 104 weeks",530 mg/kg/day
same,TD50,"rat, strain Fischer 344, females, by gavage, site: subcutaneous tissue, lesion: neurilemoma, malignant, dosed 103 weeks, study length 104 weeks",98.8 mg/kg/day
same,TD50,"rat, strain Fischer 344, females, by gavage, site: tongue, lesion: squamous-cell papilloma, dosed 103 weeks, study length 104 weeks",574 mg/kg/day
same,TD50,"rat, strain Fischer 344, males, by gavage, site: any site (literature study), lesion: several types, types named in the paper, dosed 103 weeks, study length 104 weeks",22.5 mg/kg/day
same,TD50,"rat, strain Fischer 344, males, by gavage, site: liver + multiple organs, lesion: mononuclear-cell leukemia, dosed 103 weeks, study length 104 weeks",55.3 mg/kg/day
same,TD50,"rat, strain Fischer 344, males, by gavage, site: lung, lesion: alveolar/bronchiolar carcinoma, dosed 103 weeks, study length 104 weeks",166 mg/kg/day
same,TD50,"rat, strain Fischer 344, males, by gavage, site: mammary gland, lesion: fibroadenoma, dosed 103 weeks, study length 104 weeks",271 mg/kg/day
same,TD50,"rat, strain Fischer 344, males, by gavage, site: pituitary gland, lesion: adenoma, NOS, dosed 103 weeks, study length 104 weeks",45.8 mg/kg/day
same,TD50,"rat, strain Fischer 344, males, by gavage, site: testis, lesion: interstitial-cell tumor, dosed 103 weeks, study length 104 weeks",8.03 mg/kg/day (inactive)
same,TD50,"rat, strain Fischer 344, males, by gavage, site: thyroid gland, lesion: follicular-cell carcinoma, dosed 103 weeks, study length 104 weeks",389 mg/kg/day
